Consider 14 compounds from patent EP1117659B1, “SUBSTITUTED 3-CYANOQUINOLINES AS PROTEIN TYROSINE KINASES INHIBITORS” (Wyeth Holdings Corporation, priority 1998, dated 2000).

Broadly, the IC50 is the point on the concentration scale where inhibition reaches its midpoint.

Values joined by “and” are separate entries in the source; they are usually repeats but may differ in a detail not shown here. Equal entries are not always repeated.

What all share (type): biochemical
In assay [1] the target is T1, epidermal growth factor receptor kinase (EGF-R Kinase, recombinant enzyme; His-tagged cytoplasmic domain of EGFR) (Homo sapiens, UniProt P00533).
T1 construct: EGFR cDNA encoding amino acids 645 - 1186 preceded by Met-Ala-(His)6; Met-Ala-(His)6 (N); made in house; host or cells: Sf9 insect cells, recombinant baculovirus vHcEGFR52
The assay is described as follows: Inhibition of Epidermal Growth Factor Receptor Kinase (EGF-R) using recombinant enzyme, RR-SRC peptide phosphorylation, 33P-ATP. The note with it: for inhibition at 0.5 µM: read-out: %Inh @ 0.5 µM; for IC50: recombinant enzyme, 90 min at room temperature. As to the method:
Representative test compounds were evaluated for their ability to inhibit the phosphorylation of the tyrosine residue of a peptide substrate catalyzed by the enzyme epidermal growth factor receptor kinase. The peptide substrate (RR-SRC) has the sequence arg-arg-leu-ile-glu-asp-ala-glu-tyr-ala-ala-arg-gly. The enzyme used in this test procedure is the His-tagged cytoplasmic domain of EGFR. A recombinant baculovirus (vHcEGFR52) was constructed containing the EGFR cDNA encoding amino acids 645 - 1186 preceded by Met-Ala-(His)6. Sf9 cells in 100 mm plates were infected at an moi of 10 pfu/cell and cells were harvested 48 h post infection. A cytoplasmic extract was prepared using 1% Triton X-100 and applied to Ni-NTA column. After washing the column with 20 mM imidazole, HcEGFR was eluted with 250 mM imidazole (in 50 mM Na2HPO4, pH 8.0, 300 mM NaCl). Fractions collected were dialyzed against 10 mM HEPES, pH 7.0, 50 mM NaCl, 10% glycerol, lug/mL antipain and leupeptin and 0.1 mM Pefabloc SC. The protein was frozen in dry ice/methanol and stored -70°C.
Test compounds were made into 10 mg/mL stock solutions in 100% dimethylsulfoxide (DMSO). Prior to experiment, stock solutions were diluted to 500 uM with 100% DMSO and then serially diluted to the desired concentration with HEPES buffer (30 mM HEPES pH 7.4).
For the enzyme reaction, 10 uL of each inhibitor (at various concentrations) were added to each well of a 96-well plate. To this was added 3 uL of enzyme (1:10 dilution in 10mM HEPES, pH 7.4 for final cone. of 1:120). This was allowed to sit for 10 min on ice and was followed by the addition of 5 ul peptide (80 uM final cone.), 10ul of 4X Buffer (Table A), 0.25 uL ^33P-ATP and 12 uL H2O. The reaction was allowed to run for 90 min at room temperature and was followed by spotting the entire volume on to precut P81 filter papers. The filter discs were washed 2X with 0.5% phosphoric acid and radioactivity was measured using a liquid scintillation counter.
The inhibition data for representative compounds of the invention are shown below in TABLE 1. […] The % inhibition of the test compound was determined for at least three different concentrations and the IC50 value was evaluated from the dose response curve. […] CPM(control) is in units of counts per minute and was a number expressing the amount of radiolabled ATP (γ-^33P) incorporated into the RR-SRC peptide substrate by the enzyme after 90 minutes at room temperature in the absence of test compound as measured by liquid scintillation counting. The CPM values were corrected for the background counts produced by ATP in the absence of the enzymatic reaction. […]

Assay [2] addresses Epithelial Cell Kinase (ECK) (Homo sapiens, UniProt P29317). The assay is described as follows: Inhibition of Epithelial Cell Kinase (ECK), immobilized biotinylated peptide, HRP anti-phosphotyrosine readout. The note with it: IC50, substrate phosphorylation. The procedure:
In this standard pharmacological test procedure, a biotinylated peptide substrate is first immobilized on neutravidin-coated microtiter plates. The test drug, the Epithelial Cell Kinase (ECK), Mg^++, sodium vanadate (a protein tyrosine phosphatase inhibitor), and an appropriate buffer to maintain pH (7.2) are then added to the immobilized substrate-containing microtiter wells. ATP is then added to initiate phosphorylation. After incubation, the assay plates are washed with a suitable buffer leaving behind phosphorylated peptide which is exposed to horse radish peroxidase (HRP)-conjugated anti-phosphotyrosine monoclonal antibody. The antibody-treated plates are washed again and the HRP activity in individual wells is quantified as a reflection of degree of substrate phosphorylation. […] Multiple entries for a given compound indication it was tested multiple times.

Assay [3] deals with T2, Kinase insert Domain containing Receptor (KDR: the catalytic domain of the VEGF receptor) (Homo sapiens, UniProt P35968).
T2 construct: KDR: the catalytic domain of the VEGF receptor
Nature of the assay: Inhibition of Kinase insert Domain containing Receptor (KDR), radioactive phosphorylation of Glu:Tyr copolymer. The note with it: IC50, substrate phosphorylation. As to the method: In this standard pharmacological test procedure, KDR protein is mixed, in the presence or absence of a inhibitor compound, with a substrate peptide to be phosphorylated (a copolymer of glutamic acid and tyrosine, E:Y :: 4:1) and other cofactors such as Mg^++ and sodium vanadate (a protein tyrosine phosphatase inhibitor) in an appropriate buffer to maintain pH (7.2). ATP and a radioactive tracer (either P^32- or P^33- labeled ATP) is then add to initiate phosphorylation. After incubation, the radioactive phosphate associated with the acid-insoluble fraction of the assay mixture is then quantified as reflection of substrate phosphorylation. […] Multiple entries for a given compound indication it was tested multiple times.

T2 sequence (P35968 834-1162 limits assumed): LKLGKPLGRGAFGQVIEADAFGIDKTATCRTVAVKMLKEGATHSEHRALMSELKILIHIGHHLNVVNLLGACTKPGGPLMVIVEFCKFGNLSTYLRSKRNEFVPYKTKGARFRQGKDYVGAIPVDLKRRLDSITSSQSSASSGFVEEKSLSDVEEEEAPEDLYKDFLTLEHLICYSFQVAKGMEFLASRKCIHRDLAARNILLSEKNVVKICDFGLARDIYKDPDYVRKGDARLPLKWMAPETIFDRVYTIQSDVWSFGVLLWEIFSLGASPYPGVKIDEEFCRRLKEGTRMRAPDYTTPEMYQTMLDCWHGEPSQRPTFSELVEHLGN
Chain of Epithelial Cell Kinase (ECK) (P29317 24-976, species assumed): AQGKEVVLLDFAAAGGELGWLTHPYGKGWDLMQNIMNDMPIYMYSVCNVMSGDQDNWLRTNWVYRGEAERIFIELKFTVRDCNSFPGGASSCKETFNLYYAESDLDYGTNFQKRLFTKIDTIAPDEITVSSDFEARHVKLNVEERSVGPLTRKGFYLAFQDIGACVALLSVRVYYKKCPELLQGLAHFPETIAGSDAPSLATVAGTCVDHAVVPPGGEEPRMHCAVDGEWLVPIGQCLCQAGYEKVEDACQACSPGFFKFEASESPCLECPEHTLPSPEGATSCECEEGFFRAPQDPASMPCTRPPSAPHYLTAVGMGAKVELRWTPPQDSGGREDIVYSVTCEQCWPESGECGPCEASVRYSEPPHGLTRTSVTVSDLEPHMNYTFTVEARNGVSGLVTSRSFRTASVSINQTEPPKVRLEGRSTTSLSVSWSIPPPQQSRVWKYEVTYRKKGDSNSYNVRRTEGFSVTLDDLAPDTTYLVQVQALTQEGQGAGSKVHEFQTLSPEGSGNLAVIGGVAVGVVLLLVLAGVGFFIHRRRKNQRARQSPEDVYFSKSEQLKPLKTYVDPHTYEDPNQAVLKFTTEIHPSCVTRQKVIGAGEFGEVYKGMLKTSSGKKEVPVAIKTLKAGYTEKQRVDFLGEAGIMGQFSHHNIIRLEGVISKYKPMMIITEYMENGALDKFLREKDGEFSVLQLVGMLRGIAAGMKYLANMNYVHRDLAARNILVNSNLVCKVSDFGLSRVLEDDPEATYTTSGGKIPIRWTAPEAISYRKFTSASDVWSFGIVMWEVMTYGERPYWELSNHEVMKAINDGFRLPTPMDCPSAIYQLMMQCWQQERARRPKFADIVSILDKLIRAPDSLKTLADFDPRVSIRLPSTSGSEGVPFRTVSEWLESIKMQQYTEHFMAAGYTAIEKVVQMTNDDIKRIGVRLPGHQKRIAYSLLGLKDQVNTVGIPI

“4-(2,3-Dihydro-1H-indol-6-ylamino)-6,7-diethoxy-quinoline-3-carbonitrile [Example 96]”: the “%Inh @ 0.5 µM” value in assay [1] (0.5 µM concentration of test compound) is given as 6%.

On to `CCOc1cc2ncc(C#N)c(Nc3ccc4c(c3)OCO4)c2cc1OCC` [Example 98, 4-(Benzo[1,3]dioxol-5-ylamino)-6,7-diethoxy-quinoline-3-carbonitrile], for which the 50% inhibitory concentration (IC50) was greater than 2650 nM in assay [2]; 53 µM and > 2.65 µM in assay [3].

Consider `COc1cc2ncc(C#N)c(Nc3ccc4c(c3)NCC4)c2cc1OC` [Example 113, 4-(2,3-Dihydro-1H-indol-6-ylamino)-6,7-methoxy-quinoline-3-carbonitrile], for which the IC50 in assay [3] was 8.66 µM.

Consider `COc1cc2c(Nc3ccc4c(c3)NCC4)c(C#N)cnc2cc1OCCCc1ccncc1` [Example 119, 4-(2,3-Dihydro-1H-indol-6-ylamino)-6-methoxy-7-(3-pyridin-4-yl-propoxy)-quinoline-3-carbonitrile], for which the IC50 in assay [2] was 22100 nM and > 2210 nM; in assay [3] it was 1.55 µM and 2.21 µM.

On to `COc1cc2ncc(C#N)c(Nc3cccc4[nH]ccc34)c2cc1OC` [Example 136, 4-(1H-Indol-4-ylamino)-6,7-dimethoxy-quinoline-3-carbonitrile], for which the inhibition at 0.5 µM in assay [1] turned out to be 33%. The concentration for half-maximal inhibition (IC50) in assay [1] was greater than 1000 nM; in assay [2], 871 nM; in assay [3], greater than 29 µM.

`COc1cc2ncc(C#N)c(Nc3ccc4[nH]ncc4c3)c2cc1OC` [Example 137, 4-(1H-Indazol-5-ylamino)-6,7-dimethoxy-quinoline-3-carbonitrile]: the IC50 is 150 nM in assay [1]; greater than 2900 nM in assay [2]; 29 µM and > 2.9 µM in assay [3].

For the compound `COc1cc2ncc(C#N)c(Nc3ccc4[nH]ccc4c3)c2cc1OC` [Example 150, 4-(1H -Indol-5-ylamino)-6,7-Dimethoxy-quinoline-3-carbonitrile], the IC50 is 1.5 nM and 4 nM in assay [1]; greater than 29000 nM in assay [2]; 0.581 µM in assay [3].

With `COc1cc2ncc(C#N)c(Nc3ccc4[nH]cnc4c3)c2cc1OC` [Example 151, 4-(1H -Benzoimidazol-5-ylamino)-6,7-dimethoxy-quinoline-3-carbonitrile], in assay [1], the inhibition at 0.5 µM is 34%. In addition, the IC50 in assay [1] is greater than 1000 nM; in assay [2], greater than 29000 nM; in assay [3], 29 µM.

As for `COc1cc2ncc(C#N)c(Nc3ccc(Cl)c4ccccc34)c2cc1OC` [Example 154, 4-(4-Chloro-naphthalen-1-ylamino)-6,7 -Dimethoxy-quinoline-3-carbonitrile], the IC50 in assay [2] was 770 nM; in assay [3], 12.8 µM and > 2.57 µM.

For `COc1cc2c(Nc3ccc4cn[nH]c4c3)c(C#N)cnc2cc1OCCCl` [Example 166, 7-(2-Chloroethoxy)-4-(1H-indazol-6-ylamino)-6-methoxyquinoline-3-carbonitrile], the IC50 in assay [2] was 762 nM; in assay [3], greater than 2.54 µM.

As for `COc1cc2c(Nc3ccc4cn[nH]c4c3)c(C#N)cnc2cc1OCCN1CCOCC1` [Example 168, 4-(1H-Indazol-6-ylamino)-6-methoxy-7-(2-morpholin-4-yl-ethoxy)quinoline-3-carbonitrile], the inhibition at 0.5 µM in assay [1] turned out to be 1%. The concentration for half-maximal inhibition (IC50) is greater than 1000 nM in assay [1], greater than 22500 nM in assay [2] and 4.5 µM in assay [3].

`CCOc1cc2ncc(C#N)c(Nc3ccc(Sc4nccn4C)c(Cl)c3)c2cc1OCC` [Example 172, 4-[3-Chloro-4-(1-methyl-2-imidazolylthio)phenylamino]-6,7-diethoxy-3-quinolinecarbonitrile]: the concentration for half-maximal inhibition (IC50) in assay [1] was found to be 90 nM.

For `COc1cc2ncc(C#N)c(Nc3ccc(Sc4nccn4C)c(Cl)c3)c2cc1OC` [Example 173, 4-[3-Chloro-4-(1-methyl-2-imidazolylthio)phenylamino]-6,7-dimethoxy-3-quinolinecarbonitrile], the IC50 in assay [1] is 500 nM.

Regarding `C=CC(=O)Nc1ccc2ncc(C#N)c(Nc3ccc(Sc4nccn4C)c(Cl)c3)c2c1` [Example 176, N-{4-[3-Chloro-4-(1-methyl-1H-imidazol-2-ylsulfanyl)-phenylamino]-3-cyano-quinolin-6-yl}-acrylamide], the IC50 in assay [1] came to 10 nM.
